Source: patent US4624950A, “Method for treating atherosclerosis hyperlipidema, lipid deposition on arterial walls, or raising the ratio of high density lipoprotein cholesterol to total cholesterol in serum” (Nissan Chemical Industries Ltd., priority 1983, dated 1986)

Test system: experimental atherosclerosis in rabbits induced by cholesterol diet
Assay: Effect on experimental atherosclerosis in rabbits induced by cholesterol diet (Test 4)
Type: in vivo, rabbit (male)
Description: The effect of the compound of the formula I on experimental atherosclerosis in rabbits induced by cholesterol diet
Twenty-five male rabbits weighing 1.8-2.0 kg were used. They were fed with basic chow (Nippon clea, CR-3) for a stabilizing period of 5 days. After this period, they were fed with the chow containing 1% cholesterol, 100 g per head a day for a week (7 days) and plasma cholesterol was measured using a blood sample collected from acuricle vein.
According to the results of cholesterol values measured, 14 animals of high cholesterol plasma level were selected. They were divided into two groups to have nearly equal means and S.D. values of plasma cholesterol. One group of 7 rabbits was fed with the chow containing 1% cholesterol and another group of 7 rabbits was fed with the chow containing 1% cholesterol and 0.1% compound of the formula I in an amount of 100 g per head a day for 8 weeks.
Rabbits were sacrificed at the end of 8 weeks. Aortic arch and thoracic aorta were excised, and macroscopical changes were examined using the Sudan III stain method. According to the results of gross observation of the internal surface stained by Sudan III, the ratios of the atherosclerotic plaque area (the area stained by Sudan III) to the whole internal surface area were calculated. The ratio of inhibition of atherosclerosis of the compound of the formula I was obtained by comparing the average value with the value of the control.

[1] = 0.1% in 1% cholesterol chow, 8 weeks, vs control
[2] = 0.1% in 1% cholesterol chow, 100 g per head a day, 8 weeks

**Q.** With CN1C(=S)SC(c2ccccc2)N(C)C1c1ccccc1 (stereo not shown) [Compound of the formula I, 3,5-dimethyl-4,6-diphenyl-tetrahydro-2H-1,3,5-thiadiazine-2-thione] as the molecule, how does the “Ratio of inhibition of atherosclerosis (Ratio of Improvement), Aortic arch” value [1] read?
**A.** Its value is 13.8%.

**Q.** What about the “Ratio of inhibition of atherosclerosis (Ratio of Improvement), Thoracic aorta” value [1] of the same molecule?
**A.** The value was 67.7%.

**Q.** And the “Ratio of inhibition of atherosclerosis (Ratio of Improvement), Total aorta” value [1]?
**A.** The value was 45.3%.

**Q.** And the “Atherosclerotic plaque area stained by Sudan III, Aortic arch” value [2]?
**A.** The value was 77.7%.

**Q.** And the “Atherosclerotic plaque area stained by Sudan III, Thoracic aorta” value [2]?
**A.** Its value is 11.0%.

**Q.** And the “Atherosclerotic plaque area stained by Sudan III, Total aorta” value [2]?
**A.** The value was 26.3%.

**Q.** And the “Inhibition of experimental atherosclerosis (in words)” value (1% cholesterol diet)?
**A.** The value was “inhibits experimental atherosclerosis”.
